Experiment [1] deals with NT-3 growth factor receptor (Homo sapiens) (UniProt Q16288). The experiment can be described thus: Inhibition of human TRKC using poly[Glu:Tyr] (4:1) as substrate at 1 uM in presence of 32P-ATP by Hotspot assay relative to control; values are per cent of control.
The target of experiment [2] is T1, Mitogen-activated protein kinase kinase kinase 2 (Homo sapiens) (UniProt Q9Y2U5).
T1 sequence (whole entry): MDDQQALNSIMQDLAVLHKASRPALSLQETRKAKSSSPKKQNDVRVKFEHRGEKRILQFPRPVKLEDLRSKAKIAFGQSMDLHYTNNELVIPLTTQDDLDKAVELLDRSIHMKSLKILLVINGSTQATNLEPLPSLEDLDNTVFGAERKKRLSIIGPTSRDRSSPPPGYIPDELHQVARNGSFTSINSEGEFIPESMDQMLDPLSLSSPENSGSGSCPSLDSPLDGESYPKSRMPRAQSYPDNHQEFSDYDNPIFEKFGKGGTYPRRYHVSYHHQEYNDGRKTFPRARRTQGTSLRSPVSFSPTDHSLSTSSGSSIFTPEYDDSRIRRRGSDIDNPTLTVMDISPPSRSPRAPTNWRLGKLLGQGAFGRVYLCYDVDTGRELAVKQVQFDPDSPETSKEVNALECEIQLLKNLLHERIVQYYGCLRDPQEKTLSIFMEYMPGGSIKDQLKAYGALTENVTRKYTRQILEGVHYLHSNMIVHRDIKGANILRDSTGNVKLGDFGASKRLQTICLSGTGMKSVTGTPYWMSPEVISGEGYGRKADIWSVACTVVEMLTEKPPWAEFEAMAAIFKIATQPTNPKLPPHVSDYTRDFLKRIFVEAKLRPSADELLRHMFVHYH
In words: Inhibition of human MEKK2 using myelin basic protein as substrate at 1 uM in presence of 32P-ATP by Hotspot assay relative to control; values are per cent of control.

For experiment [3], the target named is T2, Serine/threonine-protein kinase Chk1 (Homo sapiens) (UniProt O14757).
T2 sequence (whole entry): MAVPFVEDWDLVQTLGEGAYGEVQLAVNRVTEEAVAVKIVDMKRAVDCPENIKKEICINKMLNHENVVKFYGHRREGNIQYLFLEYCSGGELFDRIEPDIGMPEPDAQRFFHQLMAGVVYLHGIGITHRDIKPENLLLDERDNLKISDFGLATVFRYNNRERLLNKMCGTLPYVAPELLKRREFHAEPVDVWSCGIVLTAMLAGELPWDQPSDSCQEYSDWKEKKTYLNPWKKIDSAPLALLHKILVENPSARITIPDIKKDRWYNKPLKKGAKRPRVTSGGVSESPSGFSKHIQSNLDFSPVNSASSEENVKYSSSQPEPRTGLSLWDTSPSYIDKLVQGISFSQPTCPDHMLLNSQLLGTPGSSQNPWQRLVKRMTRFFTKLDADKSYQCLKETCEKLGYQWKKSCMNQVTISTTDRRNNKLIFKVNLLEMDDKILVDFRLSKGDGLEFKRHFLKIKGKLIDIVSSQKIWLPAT
In words: Inhibition of human CHK1 using KKKVSRSGLYRSPSMPENLNRPR as substrate at 1 uM in presence of 32P-ATP by Hotspot assay relative to control; values are per cent of control.

Experiment [4] addresses T3, Serine/threonine-protein kinase 4 (Homo sapiens) (UniProt Q13043).
T3 sequence (whole entry): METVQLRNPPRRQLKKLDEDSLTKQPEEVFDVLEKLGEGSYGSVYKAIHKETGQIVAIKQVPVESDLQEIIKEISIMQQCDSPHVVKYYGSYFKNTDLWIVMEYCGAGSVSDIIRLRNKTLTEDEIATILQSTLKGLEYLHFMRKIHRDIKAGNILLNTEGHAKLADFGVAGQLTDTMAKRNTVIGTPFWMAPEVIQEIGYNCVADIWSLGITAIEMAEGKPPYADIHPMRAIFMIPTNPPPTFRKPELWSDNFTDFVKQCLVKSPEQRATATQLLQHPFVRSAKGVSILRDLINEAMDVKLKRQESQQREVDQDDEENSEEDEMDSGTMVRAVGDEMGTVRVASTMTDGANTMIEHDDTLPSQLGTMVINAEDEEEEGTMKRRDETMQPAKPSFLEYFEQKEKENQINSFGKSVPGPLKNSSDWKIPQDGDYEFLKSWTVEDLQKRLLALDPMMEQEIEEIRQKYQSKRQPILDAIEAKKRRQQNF
In words: Inhibition of human MST1/STK4 using KKSRGDYMTMQIG as substrate at 1 uM in presence of 32P-ATP by Hotspot assay relative to control; values are per cent of control.

The target of experiment [5] is Glycogen synthase kinase-3 alpha (Homo sapiens) (UniProt P49840). In words: Inhibition of human GSK3a using YRRAAVPPSPSLSRHSSPHQ(pS)EDEEE as substrate at 1 uM in presence of 32P-ATP by Hotspot assay relative to control; values are per cent of control.
Experiment [6] concerns the target Death-associated protein kinase 3 (Homo sapiens) (UniProt O43293). In words: Inhibition of human ZIPK/DAPK3 using KKLNRTLSFAEPG as substrate at 1 uM in presence of 32P-ATP by Hotspot assay relative to control; values are per cent of control.
Experiment [7] has as its target Serine/threonine-protein kinase OSR1 (Homo sapiens) (UniProt O95747). In words: Inhibition of human OSR1/OXSR1 using RRHYYYDTHTNTYYLRTFGHNTRR as substrate at 1 uM in presence of 32P-ATP by Hotspot assay relative to control; values are per cent of control.

Death-associated protein kinase 3 (Homo sapiens), sequence (O43293 whole entry, looked up): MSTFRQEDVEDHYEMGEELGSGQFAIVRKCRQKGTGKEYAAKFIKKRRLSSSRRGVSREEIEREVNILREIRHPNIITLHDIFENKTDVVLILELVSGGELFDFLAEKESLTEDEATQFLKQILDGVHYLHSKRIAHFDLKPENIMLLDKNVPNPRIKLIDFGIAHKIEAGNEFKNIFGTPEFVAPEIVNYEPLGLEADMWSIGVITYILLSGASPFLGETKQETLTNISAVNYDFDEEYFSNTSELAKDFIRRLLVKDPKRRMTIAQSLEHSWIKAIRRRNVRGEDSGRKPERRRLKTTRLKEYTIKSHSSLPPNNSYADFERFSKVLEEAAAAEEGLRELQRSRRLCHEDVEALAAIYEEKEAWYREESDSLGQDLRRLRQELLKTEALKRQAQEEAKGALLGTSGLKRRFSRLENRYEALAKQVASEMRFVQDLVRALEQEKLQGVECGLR
Glycogen synthase kinase-3 alpha (Homo sapiens), sequence (P49840 2-483 limits assumed): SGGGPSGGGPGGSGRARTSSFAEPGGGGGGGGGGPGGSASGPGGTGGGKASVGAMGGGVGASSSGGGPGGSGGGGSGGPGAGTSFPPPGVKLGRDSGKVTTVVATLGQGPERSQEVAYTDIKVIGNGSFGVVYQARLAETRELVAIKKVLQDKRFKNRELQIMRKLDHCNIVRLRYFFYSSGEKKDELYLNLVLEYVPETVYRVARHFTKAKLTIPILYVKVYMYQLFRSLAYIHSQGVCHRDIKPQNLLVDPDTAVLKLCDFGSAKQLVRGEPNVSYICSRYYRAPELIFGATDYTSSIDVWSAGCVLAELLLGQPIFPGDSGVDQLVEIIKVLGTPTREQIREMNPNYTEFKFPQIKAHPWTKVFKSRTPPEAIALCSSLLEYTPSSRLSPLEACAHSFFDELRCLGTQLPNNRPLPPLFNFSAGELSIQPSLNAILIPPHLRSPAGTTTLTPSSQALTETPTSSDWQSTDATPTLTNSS
NT-3 growth factor receptor (Homo sapiens), sequence (Q16288 32-839 limits assumed): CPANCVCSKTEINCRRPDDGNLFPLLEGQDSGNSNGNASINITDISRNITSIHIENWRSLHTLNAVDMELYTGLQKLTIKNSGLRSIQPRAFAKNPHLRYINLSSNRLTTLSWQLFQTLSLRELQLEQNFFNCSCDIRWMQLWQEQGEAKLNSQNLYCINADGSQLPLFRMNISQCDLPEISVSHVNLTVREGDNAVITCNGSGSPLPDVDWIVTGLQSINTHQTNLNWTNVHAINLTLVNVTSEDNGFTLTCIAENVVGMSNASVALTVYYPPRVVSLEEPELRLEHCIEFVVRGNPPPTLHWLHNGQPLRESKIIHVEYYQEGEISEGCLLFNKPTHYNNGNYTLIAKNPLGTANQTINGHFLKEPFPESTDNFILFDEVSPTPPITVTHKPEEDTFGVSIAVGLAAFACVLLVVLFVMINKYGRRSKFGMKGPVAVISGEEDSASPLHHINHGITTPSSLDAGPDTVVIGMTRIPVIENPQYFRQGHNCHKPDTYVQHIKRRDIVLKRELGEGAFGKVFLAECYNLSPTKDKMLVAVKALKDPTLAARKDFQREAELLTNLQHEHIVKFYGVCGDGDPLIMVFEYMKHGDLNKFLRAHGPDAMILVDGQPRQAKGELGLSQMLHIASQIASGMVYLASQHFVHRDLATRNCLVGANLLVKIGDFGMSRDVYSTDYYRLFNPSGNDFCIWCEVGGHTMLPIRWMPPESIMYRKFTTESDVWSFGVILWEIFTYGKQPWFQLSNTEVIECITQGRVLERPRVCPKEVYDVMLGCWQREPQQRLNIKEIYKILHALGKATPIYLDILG
Serine/threonine-protein kinase OSR1 (Homo sapiens), sequence (O95747 2-527 limits assumed): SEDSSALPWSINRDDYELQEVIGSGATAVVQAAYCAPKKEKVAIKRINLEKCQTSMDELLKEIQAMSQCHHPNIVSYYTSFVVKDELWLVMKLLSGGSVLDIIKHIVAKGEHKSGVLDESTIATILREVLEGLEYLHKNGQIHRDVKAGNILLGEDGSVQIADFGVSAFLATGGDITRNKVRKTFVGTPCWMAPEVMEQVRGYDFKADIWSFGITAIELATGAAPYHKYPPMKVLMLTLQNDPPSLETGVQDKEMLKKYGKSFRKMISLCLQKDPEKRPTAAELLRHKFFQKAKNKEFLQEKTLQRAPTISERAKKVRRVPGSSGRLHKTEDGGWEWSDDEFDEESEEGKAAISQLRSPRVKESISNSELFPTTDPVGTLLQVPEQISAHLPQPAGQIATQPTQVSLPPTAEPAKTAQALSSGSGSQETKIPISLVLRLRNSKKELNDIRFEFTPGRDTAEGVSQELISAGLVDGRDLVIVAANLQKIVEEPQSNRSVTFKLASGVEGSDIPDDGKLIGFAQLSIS

Consider `CNC(=O)c1ccc2c(c1)ncn2-c1ccc(CC(=O)OC(C)(C)C)cc1`, for which the residual activity is 98% in experiment [1]; 100% in experiment [2]; 84.6% in experiment [3]; 95.3% in experiment [4]; 99.8% in experiment [5]; 96.8% in experiment [6]. Also, in experiment [7], the residual activity turned out to be 98.2%.

For `Cc1cc(-c2cnc(N)c3c(-c4ccc5scnc5c4)csc23)n(C)n1`, the residual activity in experiment [1] came out at 95.3%; in experiment [2], 106%; in experiment [3] it was 100%; in experiment [4], 96.9%; in experiment [5], 99.8%; in experiment [6], 91.3%. Further, the residual activity in experiment [7] was found to be 97.4%.

Regarding `CC(C)S(=O)(=O)c1ccc2nccc(Nc3ccc4scnc4c3)c2c1`, the residual activity in experiment [1] was 87.2%; in experiment [2], 92.2%; in experiment [3], 100%; in experiment [4], 98.5%; in experiment [5] it was 92.4%; in experiment [6] it was 102%. Further, in experiment [7], the residual activity came to 97.8%.

Values taken from ChEMBL document CHEMBL5649166, “RIP3 induces apoptosis independent of pronecrotic kinase activity” (Mol Cell, 2014).
